As a reminder, the Kd is the constant that tells how readily two partners part at equilibrium. Low readings indicate higher affinity, high ones lower affinity.

One experiment deals with Protease (Human immunodeficiency virus 1, UniProt Q9YQ12). Nature of the experiment: Binding affinity to HIV1 protease by ITC analysis.
Experiment [1] is described as follows: Inhibition of pepsin (unknown origin). Details: species or system Homo sapiens.
In another experiment the target is Cathepsin D (Homo sapiens, UniProt P07339). The experiment in a line: Inhibition of cathepsin D (unknown origin).

Each structure is given as a SMILES string.

Sequence of Protease (Q9YQ12 whole entry): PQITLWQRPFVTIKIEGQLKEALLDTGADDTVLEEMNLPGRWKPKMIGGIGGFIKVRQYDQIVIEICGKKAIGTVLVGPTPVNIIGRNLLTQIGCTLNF
Sequence of Cathepsin D (P07339 65-162 limits assumed): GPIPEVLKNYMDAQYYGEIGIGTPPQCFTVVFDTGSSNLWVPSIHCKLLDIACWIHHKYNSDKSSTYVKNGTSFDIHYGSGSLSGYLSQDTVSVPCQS
Sequence of Cathepsin D (P07339 169-412 limits assumed): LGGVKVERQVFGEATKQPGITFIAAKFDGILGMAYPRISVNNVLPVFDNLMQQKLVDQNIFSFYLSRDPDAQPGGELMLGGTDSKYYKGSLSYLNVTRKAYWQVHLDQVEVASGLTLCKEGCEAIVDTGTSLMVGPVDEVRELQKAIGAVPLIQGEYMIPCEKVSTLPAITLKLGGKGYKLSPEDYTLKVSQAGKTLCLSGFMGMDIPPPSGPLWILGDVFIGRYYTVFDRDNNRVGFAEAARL

On Protease, `CSC[C@H](NC(=O)COc1cccc2cnccc12)C(=O)N[C@@H](Cc1ccccc1)[C@H](O)C(=O)N1CSC(C)(C)C1C(=O)N[C@H]1c2ccccc2C[C@H]1O` (stereo partly drawn) had a Kd of 0.013 nM.
The same measure, in the same setting: for `CC1(C)SCN(C(=O)[C@@H](O)[C@H](Cc2ccccc2)NC(=O)[C@H](CS(C)(=O)=O)NC(=O)COc2cccc3cnccc23)C1C(=O)N[C@H]1c2ccccc2C[C@H]1O` (stereo partly drawn) the value was 0.021 nM.
On to `CC1(C)SCN(C(=O)[C@@H](O)[C@H](Cc2ccccc2)NC(=O)COc2ccccc2)C1C(=O)N[C@H]1c2ccccc2C[C@H]1O` (stereo partly drawn), for which the Kd is 11.8 nM at Protease, 850 nM in experiment [1] and 142 nM at Cathepsin D.
As for `Cc1cccc(C)c1OCC(=O)N[C@@H](Cc1ccccc1)[C@H](O)C(=O)N1CSC(C)(C)C1C(=O)N[C@H]1c2ccccc2C[C@H]1O` (stereo partly drawn), the Kd stood at 0.14 nM at Protease, 345 nM in experiment [1] and 22 nM on Cathepsin D.

(Values after ChEMBL document CHEMBL2434968, “The thermodynamic basis for the use of lipophilic efficiency (LipE) in enthalpic optimizations” (Bioorg Med Chem Lett, 2013).)
